# Data as given in US9789082B2, “Somatostatin receptor subtype 4 (SSTR4) agonists” (Centrexion Therapeutics Corporation, priority 2013, dated 2017).
# pEC50, pKi: −log10 of the molar value. Like-named read-outs stand apart in the source and are kept apart here.
# What was measured:
# [1] = Metabolic stability in pooled human liver microsomes (half-life); assay type: in vitro ADME; settings: 1 μM test compound; for half-life at 1 μM: pooled human liver microsomes, pH 7.6, 37° C., read-out: Half-life t1/2; for Half-life t1/2: 37° C.
# Procedure: The metabolic stability of the compounds according to the invention may be investigated as follows:
# The metabolic degradation of the test compound is assayed at 37° C. with pooled human liver microsomes. The final incubation volume of 100 μl per time point contains TRIS buffer pH 7.6 at room temperature (0.1 M), magnesium chloride (5 mM), microsomal protein (1 mg/mL) and the test compound at a final concentration of 1 μM. Following a short preincubation period at 37° C., the reactions are initiated by addition of beta-nicotinamide adenine dinucleotide phosphate, reduced form (NADPH, 1 mM), and terminated by transferring an aliquot into solvent after different time points. After centrifugation (10000 g, 5 min), an aliquot of the supernatant is assayed by LC-MS/MS for the amount of parent compound. The half-life is determined by the slope of the semi-logarithmic plot of the concentration-time profile.
# [2] = target: human Somatostatin 4 receptor (SSTR4) (Homo sapiens (Human), UniProt P31391); experiment: cAMP assay with human somatostatin 4 receptor (hSSTR4 expressing H4 cells); assay type: cell-based
# Procedure: Camp Assay Method Description for cAMP Assay with Human Somatostatin 4 Receptor
# The activation of the SSTR4 receptor (Gi coupled) causes an inhibition of intracellular cAMP after stimulation with Forskolin, which can be quantifiable by use of a suitable assay Kit and an adequate plate reader. This technique is used to characterize pharmacological effects of the SSTR4 receptor agonists by use of hSSTR4 expressing H4 cells.
# Compounds are dissolved and diluted in DMSO. The final test solution contains 1% DMSO. […] Cells are centrifuged and suspended in assay buffer (incl. 1:100 diluted Alexa antibody).
# For the assay 5 μl of a cell suspension (approximately 5000 cells/well)—incl. Alexa antibody (diluted 1:100) are added into a 384 well MTP microtitre plate excepting one row or column (depending on the plate layout), which is reserved for the standard curve. Then 2 μl of compound sample is added as concentration response curve (e.g. 1e-5 M to 6e-10 M), usually in triplicates. Each assay contains incubations with vehicle controls instead of compound as controls for non-inhibited cAMP generation (100% CTL; ‘high values’) and incubations with 1 μM Somatosatin as controls for full inhibition and background (0% CTL; […]). […] Then the plates are shaken briefly and incubated for 60 min at room temperature. After 60 min 10 μl of the detection mix is added into all wells followed by an additional incubation period of 1 h. The plates are read in a suitable plate reader.
# From this ratio, cAMP concentrations are calculated from standard curve and the EC50 is estimated by least square curve fit program.
# The EC50 values were obtained with the aid of the above described cAMP ASSAY.
# human SSTR2 = human SSTR2 (Homo sapiens (Human), UniProt P30874); experiment: Radioligand binding assay, CHO cell membranes expressing recombinant human SSTR2
# Source text: (§1) Radioligand Binding Assays
# (§2) Method Description for Binding Assays with Human Somatostatin Receptors by Use of CHO Cell Membranes Expressing Recombinant Human SSTR1 or Human SSTR2 or Human SSTR3 or Human SSTR4 or Human SSTR5
# (§3) Receptor binding assays refer to a technique in which labeled receptor ligands are used to detect binding to a receptor. In competition experiments test compounds, which are not labeled, compete with the binding side of a labeled ligand. The displacement of the labeled ligand by the test compound leads to a decreased signal.
# (§4) For the binding experiments 200 μL of membrane homogenate from one of the following protein amounts is used: hSSTR1 (40 μg/well); hSSTR2 (25 μg/well); hSSTR3 (1.5 μg/well); hSSTR4 (0.5 μg/well); hSSTR5 (25 μg/well). […] The incubation is terminated by filtration with ice cold NaCl 0.9% through polyethyleneimine treated (0.3%) GF/B glass fiber filters using a cell harvester. The protein-bound radioactivity is measured in a suitable reader. The non-specific binding is defined as radioactivity bound in the presence of 1 μM Somatostatin-14 during the incubation period.
# (§5) The analysis of the concentration-binding curves is performed by computer-assisted nonlinear least square curve fitting method using the model of one receptor binding site.
# (§6) Selectivity data was obtained with the aid of the above described radioligand binding assays.
# human SSTR3 = human SSTR3 (Homo sapiens (Human), UniProt P32745); experiment: Radioligand binding assay, CHO cell membranes expressing recombinant human SSTR3
# Source text: as §1, §2, §3, §4, §5, §6
# human SSTR4 = human SSTR4 (Homo sapiens (Human), UniProt P31391); experiment: Radioligand binding assay, CHO cell membranes expressing recombinant human SSTR4
# Source text: as §1, §2, §3, §4, §5, §6
# human SSTR5 = human SSTR5 (Homo sapiens (Human), UniProt P35346); experiment: Radioligand binding assay, CHO cell membranes expressing recombinant human SSTR5
# Source text: as §1, §2, §3, §4, §5, §6
# human SSTR1 = human SSTR1 (Homo sapiens (Human), UniProt P30872); experiment: Radioligand binding assay, CHO cell membranes expressing recombinant human SSTR1
# Source text: as §1, §2, §3, §4, §5, §6
# [3] = cAMP assay, read-out: SSTR4 agonism EC50
# Chain of human SSTR2 (P30874 whole entry): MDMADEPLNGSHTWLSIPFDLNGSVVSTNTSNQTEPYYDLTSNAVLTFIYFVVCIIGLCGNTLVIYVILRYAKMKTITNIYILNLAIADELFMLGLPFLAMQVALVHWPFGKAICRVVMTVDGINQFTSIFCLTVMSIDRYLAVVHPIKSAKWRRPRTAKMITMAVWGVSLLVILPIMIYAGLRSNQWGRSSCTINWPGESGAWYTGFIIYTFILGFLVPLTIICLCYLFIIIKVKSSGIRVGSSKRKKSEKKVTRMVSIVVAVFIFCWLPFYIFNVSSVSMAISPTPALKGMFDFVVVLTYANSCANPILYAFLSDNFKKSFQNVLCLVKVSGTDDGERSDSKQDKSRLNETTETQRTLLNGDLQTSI
# Chain of human SSTR3 (P32745 whole entry): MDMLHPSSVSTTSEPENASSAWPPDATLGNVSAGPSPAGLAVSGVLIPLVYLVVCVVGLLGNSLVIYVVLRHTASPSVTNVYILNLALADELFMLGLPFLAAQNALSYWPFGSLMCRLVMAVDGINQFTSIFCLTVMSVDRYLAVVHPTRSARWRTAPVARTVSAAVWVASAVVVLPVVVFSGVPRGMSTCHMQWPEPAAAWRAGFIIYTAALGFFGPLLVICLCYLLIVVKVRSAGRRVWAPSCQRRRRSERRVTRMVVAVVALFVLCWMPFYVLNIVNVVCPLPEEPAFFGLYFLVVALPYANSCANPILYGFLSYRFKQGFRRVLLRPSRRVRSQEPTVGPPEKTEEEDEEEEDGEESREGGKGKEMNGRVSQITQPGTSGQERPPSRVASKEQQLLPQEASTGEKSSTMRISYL
# Chain of human SSTR1 (P30872 whole entry): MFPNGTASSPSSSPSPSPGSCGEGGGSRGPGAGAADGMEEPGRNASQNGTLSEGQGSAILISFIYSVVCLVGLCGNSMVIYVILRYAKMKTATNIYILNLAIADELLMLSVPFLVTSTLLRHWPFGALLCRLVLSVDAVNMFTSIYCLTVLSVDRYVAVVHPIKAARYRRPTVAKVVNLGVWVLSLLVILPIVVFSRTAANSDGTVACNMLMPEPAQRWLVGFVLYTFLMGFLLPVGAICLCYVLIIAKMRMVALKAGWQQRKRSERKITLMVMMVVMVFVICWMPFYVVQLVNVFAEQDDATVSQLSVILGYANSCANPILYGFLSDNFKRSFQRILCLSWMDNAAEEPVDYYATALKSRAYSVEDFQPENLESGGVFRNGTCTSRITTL
# Chain of human SSTR5 (P35346 whole entry): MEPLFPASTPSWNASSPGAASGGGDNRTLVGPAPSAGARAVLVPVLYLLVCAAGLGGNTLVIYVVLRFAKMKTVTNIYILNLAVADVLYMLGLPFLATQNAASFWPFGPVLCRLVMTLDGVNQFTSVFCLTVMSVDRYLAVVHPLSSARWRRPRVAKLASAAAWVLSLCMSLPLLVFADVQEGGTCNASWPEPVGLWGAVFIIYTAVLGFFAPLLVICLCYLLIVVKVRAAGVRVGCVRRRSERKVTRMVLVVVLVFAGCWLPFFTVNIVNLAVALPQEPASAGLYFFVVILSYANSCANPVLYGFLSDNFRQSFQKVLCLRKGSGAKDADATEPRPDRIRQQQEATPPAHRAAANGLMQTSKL
# Chain of human SSTR4 (P31391 whole entry): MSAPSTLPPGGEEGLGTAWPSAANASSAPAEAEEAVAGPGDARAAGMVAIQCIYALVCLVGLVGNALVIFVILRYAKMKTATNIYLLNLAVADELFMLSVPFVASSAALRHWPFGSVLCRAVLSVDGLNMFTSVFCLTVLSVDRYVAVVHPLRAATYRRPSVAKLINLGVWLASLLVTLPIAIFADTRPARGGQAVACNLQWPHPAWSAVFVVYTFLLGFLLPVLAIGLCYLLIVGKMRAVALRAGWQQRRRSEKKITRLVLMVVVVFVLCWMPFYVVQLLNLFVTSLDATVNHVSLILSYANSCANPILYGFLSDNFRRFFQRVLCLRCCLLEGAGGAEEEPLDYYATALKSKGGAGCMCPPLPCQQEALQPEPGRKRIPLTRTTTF
# Chain of human Somatostatin 4 receptor (SSTR4) (P31391 whole entry): as above
Structure (SMILES),half-life at 1 μM [1] [h],"pEC50 [2, 3]",further results
CC(C)(NC(=O)[C@H]1[C@@H]2CNC[C@@H]21)c1nc2ccc(Cl)cc2[nH]1.Cl [Example 11],> 2.17,8.09,pKi (human SSTR2): < 5.02; pKi (human SSTR3): < 5.07; pKi (human SSTR4): 6.97; pKi (human SSTR5): < 5.01; pKi (human SSTR1): < 5.05
CC(C)(NC(=O)[C@H]1[C@@H]2CNC[C@@H]21)c1ccnc2ccccc12.Cl [Example 21],> 2.17,9.15,pKi (human SSTR2): < 5.02; pKi (human SSTR3): < 5.07; pKi (human SSTR4): 7.97; pKi (human SSTR5): < 5.01; pKi (human SSTR1): < 5.05
Cc1cc2ccccc2c(C(C)(C)NC(=O)[C@H]2[C@@H]3CNC[C@@H]32)n1.Cl [Example 22],> 2.17,9.40,pKi (human SSTR2): < 5.02; pKi (human SSTR4): 8.43; pKi (human SSTR5): < 5.01; pKi (human SSTR1): 6.07
CC(C)(NC(=O)[C@H]1[C@@H]2CNC[C@@H]21)c1nccc2ccccc12.Cl [Example 24],> 2.17,–,"pEC50 ([2]; SSTR4 agonism EC50, cAMP assay): 9.30; pKi (human SSTR2): < 5.02; pKi (human SSTR3): < 5.06; pKi (human SSTR4): 8.54; pKi (human SSTR5): < 5.01; pKi (human SSTR1): 5.55"
Cc1cccnc1C(C)(C)NC(=O)[C@H]1[C@@H]2CNC[C@@H]21.Cl.Cl [Example 25],> 2.17,–,"pEC50 ([2]; SSTR4 agonism EC50, cAMP assay): 7.83; pKi (human SSTR2): < 5.02; pKi (human SSTR3): < 5.06; pKi (human SSTR4): 6.94; pKi (human SSTR5): < 5.01; pKi (human SSTR1): < 5.05"
Cn1nc(C(C)(C)NC(=O)[C@H]2[C@@H]3CNC[C@@H]32)c2cccc(C(F)(F)F)c21 [Example 76],> 2.17,9.10,–
Cc1ccc(C(C)(C)NC(=O)[C@H]2[C@@H]3CNC[C@@H]32)n2ccnc12 [Example 83],> 2.17,7.96,–
CC(C)(NC(=O)[C@H]1[C@@H]2CNC[C@@H]21)c1cc2ccccn2c1 [Example 87],> 2.17,7.64,–
Cc1cccc2c(C(C)(C)NC(=O)[C@H]3[C@@H]4CNC[C@@H]43)ncnc12 [Example 88],> 2.17,9.10,–
Cc1cccc2c(C(C)(C)NC(=O)[C@H]3[C@@H]4CNC[C@@H]43)n[nH]c12 [Example 93],–,–,Half-life t1/2 [1]: >2.17 h; pKi (human SSTR2): < 5.02; pKi (human SSTR3): < 5.06; pKi (human SSTR5): < 5.01; pKi (human SSTR1): 5.15
CC(C)(NC(=O)[C@H]1[C@@H]2CNC[C@@H]21)c1n[nH]c2ccccc12 [Example 94],–,–,Half-life t1/2 [1]: >2.17 h; pKi (human SSTR2): < 5.02; pKi (human SSTR3): < 5.06; pKi (human SSTR4): 7.80; pKi (human SSTR5): < 5.01; pKi (human SSTR1): < 5.02
CCn1nc(C(C)(C)NC(=O)[C@H]2[C@@H]3CNC[C@@H]32)c2ccccc21 [Example 95],> 2.17,8.44,–
CC(C)(NC(=O)[C@H]1[C@@H]2CNC[C@@H]21)c1noc2c(C(F)(F)F)cccc12 [Example 102],> 2.17,8.64,–
Cn1nc(C(C)(C)NC(=O)[C@H]2[C@@H]3CNC[C@@H]32)c2cccc(F)c21 [Example 105],> 2.17,9.40,–
Cc1cccc2c(C(C)(C)NC(=O)[C@H]3[C@@H]4CNC[C@@H]43)nn(C)c12 [Example 107],> 2.17,–,pKi (human SSTR2): < 5.02; pKi (human SSTR3): < 5.07; pKi (human SSTR5): < 5.01; pKi (human SSTR1): 5.37
CC(C)(NC(=O)[C@H]1[C@@H]2CNC[C@@H]21)c1n[nH]c2c(F)cccc12 [Example 109],> 2.17,9.52,–
CC(NC(=O)[C@H]1[C@@H]2CNC[C@@H]21)c1nn(C)c2ccccc12 (stereo partly drawn) [Example 111],> 2.17,7.84,–
CC(NC(=O)[C@H]1[C@@H]2CNC[C@@H]21)c1nn(C)c2c(Cl)cccc12 (stereo partly drawn) [Example 114],> 2.17,8.33,–
CC(C)(NC(=O)[C@H]1[C@@H]2CNC[C@@H]21)c1nc(C2CC2)c2ccccn12.Cl [Example 120],> 2.17,8.72,–

Structure (SMILES),half-life at 1 μM [1] [h],"pEC50 [2, 3]",further results
Cc1cccn2c(C(C)(C)NC(=O)[C@H]3[C@@H]4CNC[C@@H]43)nc(C(F)(F)F)c12.Cl [Example 129],> 2.17,8.17,–
CC(C)(NC(=O)[C@H]1[C@@H]2CNC[C@@H]21)c1ncc2c(F)cccn12.Cl [Example 133],> 2.17,8.15,–
Cc1cccn2c(C3(NC(=O)[C@H]4[C@@H]5CNC[C@@H]54)CCC3)ncc12 [Example 137],> 2.17,9.10,–
CC(C)(NC(=O)[C@H]1[C@@H]2CNC[C@@H]21)c1nc(C(F)(F)F)nc2ccccc12 [Example 139],> 2.17,7.96,–
COc1cccn2c(C(C)(C)NC(=O)[C@H]3[C@@H]4CNC[C@@H]43)ncc12 [Example 140],> 2.17,9.22,–
CC(C)(NC(=O)[C@H]1[C@@H]2CNC[C@@H]21)c1nc(C2CC2)nc2ccccc12 [Example 141],> 2.17,8.48,–
Cc1cccn2c(C(C)(C)NC(=O)[C@H]3[C@@H]4CNC[C@@H]43)nnc12 [Example 142],> 2.17,8.40,–
CC(C)(NC(=O)[C@H]1[C@@H]2CNC[C@@H]21)c1ncc2c(Cl)cccn12 [Example 143],> 2.17,9.52,–
Cc1cccn2c(C3(NC(=O)[C@H]4[C@@H]5CNC[C@@H]54)CC3)ncc12 [Example 145],> 2.17,9.05,–
CC(C)(NC(=O)[C@H]1[C@@H]2CNC[C@@H]21)c1ncc2c(C3CC3)cccn12 [Example 146],> 2.17,8.59,–
CC(C)(NC(=O)[C@H]1[C@@H]2CNC[C@@H]21)c1nc(C2CC2)c2c(F)cccn12 [Example 149],> 2.17,9.00,–
Cc1cccn2c(C(C)(C)NC(=O)[C@H]3[C@@H]4CNC[C@@H]43)cnc12 [Example 150],> 2.17,9.05,–
Cc1nc(C(C)(C)NC(=O)[C@H]2[C@@H]3CNC[C@@H]32)n2cccc(F)c12 [Example 151],> 2.17,9.22,–
CC(C)(NC(=O)[C@H]1[C@@H]2CNC[C@@H]21)c1ncnc2c(Cl)cccc12 [Example 156],> 2.17,8.13,–
Cc1cc(F)cn2c(C(C)(C)NC(=O)[C@H]3[C@@H]4CNC[C@@H]43)ncc12 [Example 158],> 2.17,9.10,–
Cc1cccn2c([C@H](C)NC(=O)[C@H]3[C@@H]4CNC[C@@H]43)ncc12 [Example 159],> 2.17,7.81,–
CC(C)(NC(=O)[C@H]1[C@@H]2CNC[C@@H]21)c1cnn2ccccc12 [Example 167],> 2.17,8.31,–
CC(C)(NC(=O)[C@H]1[C@@H]2CNC[C@@H]21)c1cnn2c1CCCC2 [Example 168],> 2.17,7.33,–
